Test results published in PubChem BioAssay AID1208 (EPA DSSTox, 2008).
Active and inactive are the calls of the source.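 The calls were made as follows: active = at least one rat sex group has a carcinogenic potency value and tumor site recorded; inconclusive = only rat studies were judged inadequate by the national testing program; inactive = no potency or tumor site, with negative rat experiments.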 *1 amine or outer side, *2 acyl side, *3 side chain or, on linkers, in order; H or OH if unused. Where a SMILES comes first, the peptide text is derived from it. Bridges are numbered along the chain shown (N, C = ends). Roman numbers before positions name the chains, in order. [ ]: non-standard residue; d: D form. Actinocin(9to1) = Cc1c2oc3c(C)ccc(C(=O)[*:1])c3nc-2c(C(=O)[*:2])c(N)c1=O; NMeV = CN[C@H](C(=O)O)C(C)C; Sar = CNCC(=O)O

Test system: rat chronic carcinogenicity bioassay, TD50
Assay: DSSTox (CPDBAS) Carcinogenic Potency Database Summary Rat Bioassay Results
Settings: for outcome: TD50_Rat_Note: no positive results; for Potency: hits give low values
Procedure, shortened: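 The activity score maps log10(1/TD50_Rat_mmol) linearly onto 1–100; actives without a computed TD50, such as mixtures, receive 50. Source data are chronic rat carcinogenicity tests, using the most positive experiment for each sex.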

[1] = TargetSites_Rat_Female: no positive results
[2] = TD50_Rat_Note: positive test results only by intraperitoneal or intravenous injection, TD50 is harmonic mean of more than one positive, TargetSites_Rat_Female: peritoneal cavity
[3] = TargetSites_Rat_BothSexes: no positive results
[4] = TargetSites_Rat_Female: mammary gland
[5] = TD50_Rat_Note: TD50 is harmonic mean of more than one positive test, TargetSites_Rat_Female: liver

O=c1c(O)c(-c2ccc(O)cc2)oc2cc(O)cc(O)c12
outcome [1]: inactive; no positive results

CC(C)(C)NC[C@H](O)COc1cccc2c1CCCC2=O
outcome [1]: inactive; no positive results

CCNc1nc(Cl)nc(NC(C)C)n1
Potency (TD50_Rat_Note: TD50 is harmonic mean of more than one positive test, TargetSites_Rat_Female: hematopoietic system, mammary gland, uterus): 36.6 mg/kg/day

O=C(O)CCl
outcome [1]: inactive; no positive results

C=CCN=C=S
Potency [1]: 96 mg/kg/day

NNC(N)=S
outcome [1]: inactive

Nc1ccc2nc3ccccn3c2n1
Potency (TD50_Rat_Note: TD50 is harmonic mean of more than one positive test, TargetSites_Rat_Female: clitoral gland, ear Zymbals gland, large intestine, liver, small intestine): 42.3 mg/kg/day

Cc1cc(Cl)ccc1N
outcome [1]: inactive; no positive results

CC(C)(Oc1ccc(C2CCCc3ccccc32)cc1)C(=O)O (stereo not drawn)
Potency (TD50_Rat_Note: TD50 is harmonic mean of more than one positive test, greater than ten-fold variation among TD50 values for positive res, TargetSites_Rat_Female: liver): 11 mg/kg/day

CC/C(C)=N/O
Potency [1]: 74.5 mg/kg/day

CC/C=C(/CC)[N+](=O)[O-]
Potency (TargetSites_Rat_BothSexes: lung): 8.66 mg/kg/day

Cc1c2oc3c(C)ccc(C(=O)N[C@@H]4C(=O)N[C@H](C(C)C)C(=O)N5CCC[C@H]5C(=O)N(C)CC(=O)N(C)[C@@H](C(C)C)C(=O)O[C@@H]4C)c3nc-2c(C(=O)N[C@@H]2C(=O)N[C@H](C(C)C)C(=O)N3CCC[C@H]3C(=O)N(C)CC(=O)N(C)[C@@H](C(C)C)C(=O)O[C@@H]2C)c(N)c1=O (I: T[dV]P[Sar][NMeV] / II: T[dV]P[Sar][NMeV]; ester I:1-I:C, II:1-II:C; linker I:N-II:N via Actinocin(9to1))
Potency [2]: 0.00111 mg/kg/day

O=C1C=C(N2CC2)C(=O)C(N2CC2)=C1N1CC1
Potency (TD50_Rat_Note: positive test results only by intraperitoneal or intravenous injection): 0.00504 mg/kg/day

CSCCC(N)C(=O)O (stereo not drawn)
outcome: inactive; no positive results

CCOC(=O)[C@]1(c2ccccc2)CCC=C[C@H]1N(C)C
outcome [1]: inactive; no positive results

CNCc1ccc(CSCCNC(=NCC(O)c2ccc(O)cc2)NS(C)(=O)=O)o1 (stereo not drawn)
outcome [1]: inactive; no positive results

N[C@@H](Cc1cnc[nH]1)C(=O)O
outcome [1]: inactive; no positive results

Oc1cc2c(cc1O)[C@H]1c3ccc(O)c(O)c3OC[C@@]1(O)C2
Potency (TargetSites_Rat_BothSexes: hematopoietic system): 1000 mg/kg/day

[O-][Br+2]([O-])O
Potency (TD50_Rat_Note: TD50 is harmonic mean of more than one positive test, TargetSites_Rat_Female: kidney): 9.82 mg/kg/day

N[C@@H](Cc1ccc(N(CCCl)CCCl)cc1)C(=O)O
Potency [2]: 0.0938 mg/kg/day

Cc1ccccc1S(N)(=O)=O
Potency (TargetSites_Rat_BothSexes: urinary bladder): 3960 mg/kg/day

O=S(=O)(O)NC1CCCCC1
outcome [3]: inactive

CBr
outcome [1]: inactive; no positive results

CC(=O)CN(CCO)N=O
Potency (TargetSites_Rat_Female: liver): 1.8 mg/kg/day

CC(=O)Nc1nnc(-c2ccc([N+](=O)[O-])o2)s1
Potency (TargetSites_Rat_Female: hematopoietic system, kidney, lung, small intestine, stomach, vascular system): 8.84 mg/kg/day

C[N+](=O)[O-]
Potency [4]: 40.4 mg/kg/day

CCN(CC)CCOc1ccc(C(O)(Cc2ccc(OC)cc2)c2ccccc2)cc1 (stereo not drawn)
outcome [1]: inactive

N#CSCc1ccccc1
outcome: inactive; no positive results

O=NN1CCC(=O)NC1=O
Potency [5]: 0.0983 mg/kg/day

CCCN(CCC)c1ccc(N=Nc2cc[n+]([O-])cc2)cc1
outcome: inactive; no positive results

O=C(O)CNCC(=O)O
outcome [1]: inactive; no positive results

C#CC(OC(N)=O)(c1ccccc1)c1ccc(Cl)cc1 (stereo not drawn)
Potency: 8.78 mg/kg/day

O=C([O-])c1cc(N=Nc2ccc(-c3ccc(N=Nc4c(O)ccc(N=Nc5cc(S(=O)(=O)[O-])ccc5[O-])c4[O-])cc3)cc2)ccc1O.[Cu+2].[Na+].[Na+]
Potency (TargetSites_Rat_Female: liver): 2.07 mg/kg/day

Nc1ccc(Oc2ccc(Cl)cc2)cc1
Potency: 37.6 mg/kg/day

O=C(O)CCCC/C=C(\c1ccccc1)c1cccnc1
outcome [1]: inactive; no positive results

O[C@@H]([C@H](O)[C@@H](O)CBr)[C@@H](O)CBr
Potency (TD50_Rat_Note: positive test results only by intraperitoneal or intravenous injection, TD50 is harmonic mean of more than one positive, TargetSites_Rat_Female: mammary gland, peritoneal cavity): 27.6 mg/kg/day

COP(=S)(OC)Oc1ccc(SC)c(C)c1
outcome [1]: inactive; no positive results

Nc1c(Br)cc(Br)c2c1C(=O)c1ccccc1C2=O
Potency (TD50_Rat_Note: TD50 is harmonic mean of more than one positive test, TargetSites_Rat_Female: kidney, large intestine, liver, urinary bladder): 46 mg/kg/day

CC1=CC(C)(C)N(N=O)c2ccccc21
Potency (TD50_Rat_Note: positive test results only by intraperitoneal or intravenous injection, TD50_Rat_mmol was not calculated for this mixtur): 3.31 mg/kg/day

O=NN1CCOC1=O
Potency (TD50_Rat_Note: TD50 is harmonic mean of more than one positive test, harmonic mean of TD50 includes a value for upper 99% confidence li): 0.385 mg/kg/day

ClC1(Cl)C2(Cl)C3C4(Cl)C1(Cl)C1(Cl)C4(Cl)C(Cl)(Cl)C3(Cl)C21Cl (stereo not drawn)
Potency: 1.46 mg/kg/day

CC(O)CN(CC(C)O)CC(C)O (stereo not drawn)
outcome: inactive; no positive results

COc1c(Cl)c(Cl)c(Cl)c(Cl)c1Cl
Potency [1]: 24.8 mg/kg/day

COc1ccc(CN(CCN(C)C)c2ccccn2)cc1
Potency [5]: 280 mg/kg/day

CCNC(=S)NCC
Potency (TD50_Rat_Note: TD50 is harmonic mean of more than one positive test, TargetSites_Rat_Female: thyroid gland): 24 mg/kg/day

C=C(C)[C@H]1CC=C(C)CC1
Potency [1]: 204 mg/kg/day

Nc1ccc(-c2ccccc2)cc1O
outcome [1]: inactive

CN[C@H]1CCc2cc(OC)c(OC)c(OC)c2-c2ccc(OC)c(=O)cc21
outcome: inactive; no positive results

O=[N+]([O-])c1ccc2c(c1)Cc1ccccc1-2
Potency: 0.285 mg/kg/day

CCN(C#N)N=O
Potency (TD50_Rat_Note: TD50 is harmonic mean of more than one positive test, TargetSites_Rat_Female: nasal cavity): 3.68 mg/kg/day

[O]=[Mo](=[O])=[O]
outcome [1]: inactive; no positive results

CN1C(=O)C[C@@H](C(=O)N[C@@H](Cc2cnc[nH]2)C(=O)N2CCC[C@H]2C(N)=O)NC1=O
outcome [1]: inactive; no positive results

O=C(O)c1cc(N=Nc2ccc(S(=O)(=O)Nc3ccccn3)cc2)ccc1O
Potency (TD50_Rat_Note: TD50 is harmonic mean of more than one positive test, TargetSites_Rat_Female: kidney, urinary bladder): 1590 mg/kg/day

ClC(Cl)Cl
Potency [5]: 262 mg/kg/day

CCOC(=O)C(C)(C)Oc1ccc(Cl)cc1
Potency: 169 mg/kg/day

S=C([S-])NCCNC(=S)[S-].[Mn+2]
Potency (TargetSites_Rat_BothSexes: all tumor bearing animals): 157 mg/kg/day

C=C(C)C
Potency [1]: 3550 mg/kg/day

O=c1[nH]nc(-c2ccc([N+](=O)[O-])o2)o1
Potency (TargetSites_Rat_Female: all tumor bearing animals): 8.61 mg/kg/day

S=c1nc[nH]c2nc[nH]c12
outcome [1]: inactive; no positive results

Nc1ccc(Sc2ccc(N)cc2)cc1
Potency (TD50_Rat_Note: TD50 is harmonic mean of more than one positive test, TargetSites_Rat_Female: ear Zymbals gland, thyroid gland, uterus): 3.71 mg/kg/day

CCCCCCCCCCCCCCCC(=O)CC(=O)CCCCCCCCCCCCCCC
outcome [1]: inactive

C[C@@H]1C[C@H]2[C@@H]3CCC4=CC(=O)C=C[C@]4(C)[C@@]3(F)[C@@H](O)C[C@]2(C)[C@@]1(O)C(=O)CO
outcome: inactive; no positive results

CCCCCCCCCc1ccc(OCCOCCO)cc1
outcome [1]: inactive

CN(C)C(=O)Nc1ccc(Cl)cc1
Potency [1]: 131 mg/kg/day

CC(C)(C)NCC(O)c1ccc(O)c(CO)c1 (stereo not drawn)
Potency (TD50_Rat_Note: TD50 is harmonic mean of more than one positive test, TargetSites_Rat_Female: mesovarium): 40 mg/kg/day

Clc1nc(Cl)nc(Nc2ccccc2Cl)n1
outcome [1]: inactive; no positive results

O=C1N(CCO)CCN1/N=C/c1ccc([N+](=O)[O-])o1
Potency [4]: 16.7 mg/kg/day

O=C1O[C@H]([C@@H](O)CO)C(O)=C1O
outcome [1]: inactive; no positive results

COC(=O)C(C)(C)Oc1ccc(-c2ccc(Cl)cc2)cc1
Potency (TD50_Rat_Note: TD50 is harmonic mean of more than one positive test, harmonic mean of TD50 includes a value for upper 99% confidence li, TargetSites_Rat_Female: liver): 4.78 mg/kg/day

C=CCN(N=O)C(N)=O
Potency (TD50_Rat_Note: TD50 is harmonic mean of more than one positive test, TargetSites_Rat_Female: mammary gland, stomach, uterus): 0.341 mg/kg/day

c1ccncc1
Potency [1]: 67.3 mg/kg/day

COC(=O)C1=C(C)NC(C)=C(C(=O)OCCN2CCN(C(c3ccccc3)c3ccccc3)CC2)C1c1cccc([N+](=O)[O-])c1 (stereo not drawn)
outcome [1]: inactive; no positive results

COP(=O)(OC)OC
outcome [1]: inactive; no positive results

N#CS
outcome [1]: inactive; no positive results

CC(N)=S
Potency: 11.5 mg/kg/day

[O]=[Cr][O][Cr]=[O]
outcome [3]: inactive

C=CCc1ccc2c(c1)OCO2
Potency (TD50_Rat_Note: TD50 is harmonic mean of more than one positive test, TargetSites_Rat_BothSexes: liver): 441 mg/kg/day

CC(O)C(=O)O (stereo not drawn)
outcome [1]: inactive; no positive results

[O-]/[N+](=N\O)c1ccccc1
Potency (TD50_Rat_Note: TD50 is harmonic mean of more than one positive test, TargetSites_Rat_Female: ear Zymbals gland, liver, stomach, vascular system): 8.35 mg/kg/day

CC(C)CCCCCCOC(=O)c1ccccc1C(=O)OCCCCCCC(C)C
Potency (TD50_Rat_Note: TD50 is harmonic mean of more than one positive test, TD50_Rat_mmol was not calculated for this mixture, but Activiity S, TargetSites_Rat_Female: hematopoietic system, liver): 861 mg/kg/day

C=C(Cl)Cl
outcome [1]: inactive; no positive results

CCC(=O)C(CC(C)N(C)C)(c1ccccc1)c1ccccc1 (stereo not drawn)
outcome [1]: inactive; no positive results

NC(=S)NNC=O
outcome [1]: inactive

ClCC1CO1 (stereo not drawn)
Potency (TD50_Rat_Note: TD50 is harmonic mean of more than one positive test, TargetSites_Rat_Female: stomach): 2.96 mg/kg/day

CCN(CC)CCCNC(=O)Cn1ncc(-c2ccccc2)c1-c1ccccc1
outcome [1]: inactive; no positive results

O=NN(CCCC(F)(F)F)CCCC(F)(F)F
Potency (TD50_Rat_Note: TD50 is harmonic mean of more than one positive test, TargetSites_Rat_Female: liver, lung): 0.748 mg/kg/day

CCN(CC)C(=S)SSC(=S)N(CC)CC
outcome [1]: inactive; no positive results

CCCCN(N=O)C(=N)N[N+](=O)[O-]
outcome: inactive; no positive results
